In patent US10023593B2, “ALK kinase inhibitor, and preparation method and uses thereof” (BEIJING PEARL BIOTECHNOLOGY LIMITED LIABILITY COMPANY, priority 2014, dated 2018):

Tests used:
cytochrome P450 1A2 = target: T1, cytochrome P450 1A2 (Homo sapiens, UniProt P05177); assay: Inhibitory activity on cytochrome P450 1A2; type: in vitro ADME; conditions: no significant inhibition
T1 sequence (P05177 1-516): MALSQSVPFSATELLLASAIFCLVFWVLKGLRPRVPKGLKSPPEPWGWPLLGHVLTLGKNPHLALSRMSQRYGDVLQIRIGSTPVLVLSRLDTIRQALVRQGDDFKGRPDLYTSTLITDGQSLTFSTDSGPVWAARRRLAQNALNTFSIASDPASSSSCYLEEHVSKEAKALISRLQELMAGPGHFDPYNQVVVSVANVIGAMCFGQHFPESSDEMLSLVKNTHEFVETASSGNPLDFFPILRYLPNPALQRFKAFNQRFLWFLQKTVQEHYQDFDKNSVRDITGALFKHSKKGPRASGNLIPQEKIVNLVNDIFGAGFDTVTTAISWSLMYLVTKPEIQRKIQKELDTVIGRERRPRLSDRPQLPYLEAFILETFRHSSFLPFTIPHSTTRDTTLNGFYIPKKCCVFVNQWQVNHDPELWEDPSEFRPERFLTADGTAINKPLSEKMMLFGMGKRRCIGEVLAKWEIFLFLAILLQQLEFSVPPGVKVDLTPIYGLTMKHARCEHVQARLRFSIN

cytochrome P450 2D6 = cytochrome P450 2D6 (Homo sapiens, UniProt P10635); assay: Inhibitory activity on cytochrome P450 2D6; type: in vitro ADME; conditions: no significant inhibition
Sequence of cytochrome P450 2D6 (P10635 whole entry): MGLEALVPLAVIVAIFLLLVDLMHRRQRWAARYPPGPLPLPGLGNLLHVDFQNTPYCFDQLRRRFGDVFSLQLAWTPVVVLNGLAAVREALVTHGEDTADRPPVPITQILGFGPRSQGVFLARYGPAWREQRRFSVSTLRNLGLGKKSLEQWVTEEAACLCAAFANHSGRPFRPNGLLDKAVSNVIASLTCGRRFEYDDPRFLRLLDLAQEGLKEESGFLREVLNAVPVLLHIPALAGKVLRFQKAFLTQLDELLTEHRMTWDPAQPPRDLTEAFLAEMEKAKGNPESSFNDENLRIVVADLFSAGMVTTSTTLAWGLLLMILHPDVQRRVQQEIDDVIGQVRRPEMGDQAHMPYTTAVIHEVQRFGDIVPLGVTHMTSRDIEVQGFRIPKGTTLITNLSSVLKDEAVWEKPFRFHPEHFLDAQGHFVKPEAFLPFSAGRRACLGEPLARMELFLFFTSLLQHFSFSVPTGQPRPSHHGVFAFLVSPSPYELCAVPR

Compound | IC50 (cytochrome P450 1A2) | IC50 (cytochrome P450 2D6)
CC(C)CS(=O)(=O)c1nn(C)cc1Nc1nc(Nc2ccc(C3CCN(C)CC3)cc2OC2CC2)ncc1Cl [Final product 43] | > 10 µM | > 10 µM
CC(C)S(=O)(=O)c1nn(C)cc1Nc1nc(Nc2cc(Cl)c(C3CCN(C)CC3)cc2OC2CC2)ncc1Cl [Final product 47] | > 10 µM | > 10 µM
Cc1cc(Nc2ncc(Cl)c(Nc3cn(C)nc3S(=O)(=O)C(C)C)n2)c(OC2CC2)cc1C1CCN(CCO)CC1 [Final product 133, 2-(4-(4-(5-chloro-4-(3-(isopropylsulfonyl)-1-methyl-1H-pyrazol-4-amino)pyrimidin-2-amino)-5-cyclopropoxy-2-methylphenyl)piperidin-1-yl) ethanol] | > 10 µM | > 10 µM
CC(C)S(=O)(=O)c1nn(C2CC2)cc1Nc1nc(Nc2cc(F)c(C3CCN(C)CC3)cc2OC2CC2)ncc1Cl [Final product 46] | > 10 µM | > 10 µM
CC(C)S(=O)(=O)c1nn(C)cc1Nc1nc(Nc2ccc(C3CCN(C)CC3)cc2OC2CC2)ncc1Cl [Final product 40] | > 10 µM | > 10 µM
Cc1cc(Nc2ncc(Cl)c(Nc3cn(C)nc3S(=O)(=O)C(C)C)n2)c(OC2CC2)cc1C1CCN(CCN(C)C)CC1 [Final product 146, 5-chloro-N^2-(2-cyclopropoxy-4-(1-(2-(dimethylamino)ethyl)piperidin-4-yl)-5-methylphenyl)-N^4-(3-(isopropylsulfonyl)-1-methyl-1H-pyrazol-4-yl)-pyrimidin-2,4-diamine] | > 10 µM | > 10 µM
Cc1cc(Nc2ncc(Cl)c(Nc3cn(C)nc3S(=O)(=O)C(C)C)n2)c(OC2CC2)cc1C1CC(C)N(C)C(C)C1 (centres unmarked) [Final product 95] | > 10 µM | > 10 µM

Further lines, results first:

IC50 (cytochrome P450 1A2) | IC50 (cytochrome P450 2D6) | Compound
> 10 µM | > 10 µM | Cc1cc(Nc2ncc(Cl)c(Nc3cn(C)nc3S(=O)(=O)C(C)C)n2)c(OC2CC2)cc1C1CCN(S(C)(=O)=O)CC1 [Final product 167, 5-chloro-N^2-(2-cyclopropoxy-5-methyl-4-(1-methanesulfonyl-piperidin-4-yl)-phenyl)-N^4-(3-(isopropylsulfonyl)-1-methyl-1H-pyrazol-4-yl)pyrimidin-2,4-diamine]
> 10 µM | > 10 µM | CC(=O)N1CCN([C@H]2CC[C@H](c3cc(OC4CC4)c(Nc4ncc(Cl)c(Nc5cn(C)nc5S(=O)(=O)C(C)C)n4)cc3C)CC2)CC1 [Final product 204]
> 10 µM | > 10 µM | Cc1cc(Nc2ncc(Cl)c(Nc3cn(C)nc3S(=O)(=O)C(C)C)n2)c(OC2CC2)cc1C1CCN(C2COC2)CC1 [Final product 156]
> 10 µM | > 10 µM | CC(=O)N1CCC(c2cc(OC3CC3)c(Nc3ncc(Cl)c(Nc4cn(C)nc4S(=O)(=O)C(C)C)n3)cc2C)CC1 [Final product 160, 1-acetyl-4-(4-(5-chloro-4-(3-(isopropylsulfonyl)-1-methyl-1H-pyrazol-4-amino)pyrimidin-2-amine)-5-cyclopropoxy-2-methylphenyl)piperidine]
> 10 µM | > 10 µM | Cc1cc(Nc2ncc(Cl)c(Nc3cn(C)nc3S(=O)(=O)C(C)C)n2)c(OC2CC2)cc1C1CCN(C(=O)CC#N)CC1 [Final product 166, 1-cyano acetyl-4-(4-(5-chloro-4-(3-(isopropylsulfonyl)-1-methyl-1H-pyrazol-4-amino)pyrimidin-2-amine)-5-cyclopropoxy-2-methylphenyl)piperidine]
> 10 µM | > 10 µM | Cc1cc(Nc2ncc(Cl)c(Nc3cn(C)nc3S(=O)(=O)C(C)C)n2)c(OC2CC2)cc1C1CCN(C(=O)C(F)(F)F)CC1 [Final product 161, 1-trifluoroacetyl-4-(4-(5-chloro-4-(3-(isopropylsulfonyl)-1-methyl-1H-pyrazol-4-amino)pyrimidin-2-amine)-5-cyclopropoxy-2-methylphenyl)piperidine]
